The values below are quoted from earlier work in patent US20050256097A1, “Pharmaceutical solution formulations containing 17-AAG” (Kosan Biosciences, Inc., priority 2004, published 2005).

Turning to `C=CCNC1=C2C[C@@H](C)C[C@H](OC)[C@H](O)[C@@H](C)/C=C(\C)[C@H](OC(N)=O)[C@@H](OC)/C=C\C=C(/C)C(=O)NC(=CC1=O)C2=O` [Sample 17-AAG, 17-allylamino-17-demethoxygeldanamycin], the “water solubility (in words)” value is on record as “very poor water solubility”. Where the note is “neutral pH”, the water solubility result is reported as “about 0.1 mg/mL”. Consider `COC1/C=C\C=C(/C)C(=O)NC2=CC(=O)C(NCCN(C)C)=C(C[C@@H](C)C[C@H](OC)[C@H](O)[C@@H](C)/C=C(\C)[C@@H]1OC(N)=O)C2=O` (stereo partly shown) [Sample 17-DMAG, 17-(2-dimethylaminoethyl)amino-17-demethoxygeldanamycin], for which the “water solubility (in words)” value is recorded as “more soluble”. `COC1=C2C[C@@H](C)C[C@H](OC)[C@H](O)[C@@H](C)/C=C(\C)[C@H](OC(N)=O)[C@@H](OC)/C=C\C=C(/C)C(=O)NC(=CC1=O)C2=O` [geldanamycin, Geldanamycin]: the “water solubility (in words)” value is recorded as “very poor water solubility”.
